Experimental findings from patent US5192760A, “3-carbalkoxyamino-5-(alpha-aminopropionyl)-5H-dibenz[b,f]azepines and method for their making” (priority 1989, dated 1993) are described below.

One may read the LD50 as the dose at which mortality reaches 50%. By ED50 is commonly meant the dose at which the effect has come halfway, by size or by number of responders.

Data set [1] is described as follows: in vivo. It counts as in vivo, female Wistar rats. The conditions noted are these: in vivo. On the procedure: (§1) ED73 iv. and po. are the dose in mg/kg, body weight which inhibits aconitine in female Wistar rats after iv. or po. administration of the test substance up to the occurrence of isolated ventricular extrasystolae. The procedure is also described by K. Femmer et al., in Pharmazie, vol. 31, page 36 (1976). The test substances are administered 2 minutes before the aconitine if given iv., and 60 minutes before the aconitine if given orally. The data is analyzed by the Probit regression analysis with a confidence interval of p=0.05 (values in parentheses).
(§2) Q1 is the ratio of […]. to determine the absorption, and Q2 is the ratio of LD50 iv. /ED73 iv. to determine the therapeutic breadth.

The test system of another data set is Aconitine (rat). In words: animal or person. It counts as in vivo, female Wistar rats. The conditions noted are these: Rattus norvegicus. Here is the method: as §1, §2
Data set [2] can be described thus: in vivo. Also noted: species or system male or female Wistar rats. The following applies: Wistar rat, iv. in tail vein, p=0.05 confidence interval in parentheses. An excerpt:
LD50 iv. is the lethal dose in mg/kg body weight for 50% of the experimental animals of an orientating acute toxicity test on male or female Wistar rats of our own breed, iv. administration in the tail vein, 3-4 dosages, 10 animals per group. Data analyzed by the Probit regression analysis with a confidence interval of p=0.05 (values in parentheses).

Where [3] appears, read: ratio of ED73 po. to ED73 iv., rat aconitine, read-out: Q1 (ED73 po. /ED73 iv.), absorption ratio.
[4] abbreviates: ratio of LD50 iv. to ED73 iv., rat, read-out: Q2 (LD50 iv. /ED73 iv.), therapeutic breadth.

Structures are written as SMILES. Like-named read-outs stand apart in the source and are kept apart here.

As to `CCOC(=O)Nc1ccc2c(c1)N(C(=O)C(C)NC)c1ccccc1C=C2` (stereo not drawn) [compound 10], the values for the selectivity ratio in “in vivo [1]” (setting [3]) and in “in vivo [1]” (setting [4]) were 6.5 and 19, respectively. In addition, the ED73 was found to be 0.75 mg/kg in the data set with Aconitine (rat) (iv, read-out: ED73 iv.) and 4.9 mg/kg in the data set with Aconitine (rat) (po, read-out: ED73 p.o.). Moreover, the LD50 in “in vivo [2]” was 14 mg/kg.
As for `Cc1cccc(C)c1OCC(C)N` (stereo not drawn) [Mexiletin, reference compound], the ED50 in the data set on Aconitine (rat) (iv, read-out: ED50 iv. (printed in the ED73 p.o. column)) came to 91 mg/kg. Besides, the ED73 in the data set with Aconitine (rat) (iv, read-out: ED73 iv.) came out at 15 mg/kg.
With `CNC(C)C(=O)N1c2ccccc2CCc2ccc(NC(=O)OC)cc21` (stereo not drawn) [compound 8], the values for the selectivity ratio in “in vivo [1]” (setting [3]) and in the data set “in vivo [1]” (setting [4]) were 16 and 28, respectively. In addition, the ED73 in the data set on Aconitine (rat) (iv, read-out: ED73 iv.) amounted to 0.86 mg/kg; in the data set with Aconitine (rat) (po, read-out: ED73 p.o.), 14 mg/kg. For the same compound, the LD50 in “in vivo [2]” came to 24 mg/kg.
Turning to `CCOC(=O)Nc1ccc2c(c1)N(C(=O)C(C)N)c1ccccc1CC2` (stereo not drawn) [compound 13], the selectivity ratio amounted to 45 in the data set “in vivo [1]” (setting [3]) and 68 in “in vivo [1]” (setting [4]). In addition, the ED73 with Aconitine (rat) (iv, read-out: ED73 iv.) was 0.31 mg/kg; in the data set with Aconitine (rat) (po, read-out: ED73 p.o.), 14 mg/kg. In the data set “in vivo [2]”, the median lethal dose (LD50) amounted to 21 mg/kg.
Turning to `CCOC(=O)Nc1ccc2c(c1)N(C(=O)C(C)N1CCOCC1)c1ccccc1CC2` (stereo not drawn) [Test No. 3], the selectivity ratio in “in vivo [1]” (setting [4]) was around 2. Moreover, the ED73 in the data set on Aconitine (rat) (iv, read-out: ED73 iv.) was 47 mg/kg; in the data set with Aconitine (rat) (po, read-out: ED73 p.o.) it was above 80 mg/kg. The LD50 in “in vivo [2]” was above 70 mg/kg.
Consider `CCNC(C)C(=O)N1c2ccccc2CCc2ccc(NC(=O)OCC)cc21.Cl` (stereo not drawn) [Test No. 5, 3-carbethoxyamino-5-(α-ethylaminopropionyl)-10,11-dihydro-5H-dibenz[b,f]azepine hydrochloride], for which the figures for the selectivity ratio in the data set “in vivo [1]” (setting [3]) and in the data set “in vivo [1]” (setting [4]) were 44 and 39, respectively. Also, the ED73 came out at 0.16 mg/kg in the data set with Aconitine (rat) (iv, read-out: ED73 iv.) and 7 mg/kg with Aconitine (rat) (po, read-out: ED73 p.o.). In addition, the LD50 in the data set “in vivo [2]” worked out at 9.3 mg/kg.
For `CCOC(=O)Nc1ccc2c(c1)N(C(=O)C(C)NC)c1ccccc1CC2` (stereo not drawn) [Test No. 4, 3-Carbethoxyamino-5-(α-methylaminopropionyl)-10,11-dihydro-5H-dibenz[b,f]-azepine] the same measures were 158, 100, 0.12 mg/kg, 19 mg/kg and 12 mg/kg.
For `CCCNC(C)C(=O)N1c2ccccc2CCc2ccc(NC(=O)OCC)cc21` (stereo not drawn) [compound 12], in that order: 22, 16, 0.16 mg/kg, 3.5 mg/kg and 2.5 mg/kg.
For `CNC(C)C(=O)N1c2ccccc2CCc2ccc(NC(=O)OC(C)C)cc21` (stereo not drawn) [compound 6] the same measures were 22, 38, 0.55 mg/kg, 12 mg/kg and 21 mg/kg.
On to `CCNC(C)C(=O)N1c2ccccc2CCc2ccc(NC(=O)OC(C)C)cc21` (stereo not drawn) [compound 7], for which the selectivity ratio in the data set “in vivo [1]” (setting [3]) was 61; in the data set “in vivo [1]” (setting [4]) it was 30. The ED73 in the data set with Aconitine (rat) (iv, read-out: ED73 iv.) stood at 0.33 mg/kg; in the data set on Aconitine (rat) (po, read-out: ED73 p.o.), 20 mg/kg. Moreover, the LD50 in the data set “in vivo [2]” turned out to be 10 mg/kg.
In the case of `CCOC(=O)Nc1ccc2c(c1)N(C(=O)CN(C)C)c1ccccc1CC2` [Bonnecor, 3carbethoxyamino-5-dimethylaminoacetyl-10,11-dihydro-5H-dibenz[b,f,]azepine, reference compound], the selectivity ratio in “in vivo [1]” (setting [3]) was 20; in “in vivo [1]” (setting [4]), 39. In addition, the ED73 with Aconitine (rat) (iv, read-out: ED73 iv.) was determined as 0.28 mg/kg; in the data set on Aconitine (rat) (po, read-out: ED73 p.o.), 5.7 mg/kg.
`CCOC(=O)Nc1ccc2c(c1)N(C(=O)C(C)N(C)C)c1ccccc1CC2` (stereo not drawn) [Test No. 1]: the values for the selectivity ratio in the data set “in vivo [1]” (setting [3]) and in “in vivo [1]” (setting [4]) were 10 and 8, respectively. Moreover, the ED73 in the data set on Aconitine (rat) (iv, read-out: ED73 iv.) stood at 2.4 mg/kg; with Aconitine (rat) (po, read-out: ED73 p.o.), 24 mg/kg. Moreover, the LD50 in the data set “in vivo [2]” amounted to 20 mg/kg.
As to `COC(=O)Nc1ccc2c(c1)N(C(=O)C(C)NCCO)c1ccccc1CC2` (stereo not drawn) [compound 9], the selectivity ratio in the data set “in vivo [1]” (setting [4]) was found to be 14. Further, in the data set with Aconitine (rat) (iv, read-out: ED73 iv.), the ED73 came out at 4 mg/kg. In the data set “in vivo [2]”, the LD50 was 55 mg/kg.
Turning to `CCNC(C)C(=O)N1c2ccccc2C=Cc2ccc(NC(=O)OCC)cc21` (stereo not drawn) [compound 11], the selectivity ratio in the data set “in vivo [1]” (setting [3]) and in “in vivo [1]” (setting [4]) was 18 throughout. The ED73 with Aconitine (rat) (iv, read-out: ED73 iv.) was found to be 0.8 mg/kg; in the data set with Aconitine (rat) (po, read-out: ED73 p.o.) it was 14 mg/kg. Moreover, the LD50 in the data set “in vivo [2]” was 14 mg/kg.
Consider `CCOC(=O)Nc1ccc2c(c1)N(C(=O)CCN1CCOCC1)c1ccccc1S2` [Moracizin, reference compound], for which the figures for the selectivity ratio in “in vivo [1]” (setting [3]) and in the data set “in vivo [1]” (setting [4]) were 102 and 10, respectively. The ED73 is 1.1 mg/kg in the data set with Aconitine (rat) (iv, read-out: ED73 iv.) and 112 mg/kg in the data set with Aconitine (rat) (po, read-out: ED73 p.o.).
Take `CCOC(=O)Nc1ccc2c(c1)N(C(=O)C(C)N(CC)CC)c1ccccc1CC2` (stereo not drawn) [Test No. 2]: the selectivity ratio in the data set “in vivo [1]” (setting [3]) and in the data set “in vivo [1]” (setting [4]) was 9 throughout. The ED73 is 1.3 mg/kg with Aconitine (rat) (iv, read-out: ED73 iv.) and 11 mg/kg in the data set with Aconitine (rat) (po, read-out: ED73 p.o.). The LD50 in the data set “in vivo [2]” amounted to 12 mg/kg.
